In patent US20250152719A1, “FUSED IMIDE DERIVATIVE” (Chia Tai Tianqing Pharmaceutical Group Co., Ltd., priority 2021, published 2025):
Like-named read-outs stand apart in the source and are kept apart here.

Key:
Mouse pharmacokinetics = type: in vivo, ICR mice
Protocol: ICR mice weighing 18-22 g were randomized into groups of 9 after 3-5 days of acclimatization and then intragastrically given the test compound solution at a dose of 10 mg/kg. Plasma samples to be tested were prepared by taking blood from the orbit at time points of 15 min, 30 min, 1 h, 2 h, 3 h, 4 h, 6 h, 8 h, 10 h, and 24 h. 20 μL of each plasma sample to be detected and a standard curve sample were taken, and an acetonitrile solution containing an internal standard was added. […] Pharmacokinetic parameters were fitted using a non-compartmental model (see Table 5).

OCI-LY10 cells = assay: Inhibitory activity on OCI-LY10 cell proliferation (CCK-8); type: cell-based
Outline: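 Cells seeded at 1×10^5 cells/mL and incubated overnight were exposed in duplicate to final compound concentrations of 5000 nM-0.31 nM for 72 h. CCK-8 was added for 2.5 h and absorbance read at 450 nm. IC50 was obtained from four-parameter dose-response fits.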

EGFR kinase = EGFR kinase (Homo sapiens (Human), UniProt P00533); assay: Inhibitory activity on EGFR kinase; type: biochemical; conditions: ATP 5 μM
EGFR kinase, sequence (P00533 669-1210): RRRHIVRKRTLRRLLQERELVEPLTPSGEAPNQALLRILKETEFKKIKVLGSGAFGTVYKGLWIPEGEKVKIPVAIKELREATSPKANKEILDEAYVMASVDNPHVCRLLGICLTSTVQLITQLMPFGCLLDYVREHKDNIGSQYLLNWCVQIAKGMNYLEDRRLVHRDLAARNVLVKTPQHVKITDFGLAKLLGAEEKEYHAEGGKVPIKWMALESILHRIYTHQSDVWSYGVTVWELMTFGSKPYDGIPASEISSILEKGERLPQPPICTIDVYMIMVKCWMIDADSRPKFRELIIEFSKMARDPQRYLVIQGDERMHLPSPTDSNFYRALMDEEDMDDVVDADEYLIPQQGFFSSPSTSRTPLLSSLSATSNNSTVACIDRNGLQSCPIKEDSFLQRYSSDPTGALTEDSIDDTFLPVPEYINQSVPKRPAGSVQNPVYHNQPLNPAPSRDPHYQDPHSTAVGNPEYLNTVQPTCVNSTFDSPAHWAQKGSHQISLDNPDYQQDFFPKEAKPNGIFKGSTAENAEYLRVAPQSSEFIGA
Protocol: (§1) The Assay Buffer was prepared, and the composition of the Assay Buffer was 50 mM Hepes (Gibco, 15630), 10 mM MgCl2, 2 mM DTT, 1 mM EGTA, and 0.010% Tween 20. EGFR kinase (Carna, 08-115), ATP (Sigma, A7699), and ULight-poly GT (PE, TRF0100-M) working solutions were prepared using the Assay Buffer. EDTA and Eu-labeled anti-phosphotyrosine (PT66) antibody (PE, AD0069) working solutions were prepared using the Detection Buffer. 6 μL of EGFR kinase at the corresponding concentration (final concentration: 0.006 ng/μL) was added to the compound groups and the control group, while 6 μL of the Assay Buffer was added to the blank group, and then the compounds (with the concentration set to 1000 nM at the maximum, 4-fold dilution, 7 concentration gradients) were added using a nanoliter pipettor. The mixture was incubated at room temperature for 30 min, and then 4 μL of the mixture of ATP (final concentration: 5 μM) and ULight-poly GT (final concentration: 100 nM) was added. After incubation at room temperature for 2 h, 5 μL of EDTA (final concentration: 10 mM) was added to stop the reaction, and finally 5 μL of antibody (final concentration: 2 nM) was added. After incubation at room temperature for 1 h, signal values were detected at 665/615 nM, the four-parameter analysis was performed, the dose-response curves were fit, and IC50 was calculated.

BTK = BTK (Homo sapiens (Human), UniProt Q06187); assay: BTK degradation in OCI-LY10 cells (Total-BTK HTRF kit); type: cell-based; conditions: 24 (or 6) h incubation; for DC50: DC50 = concentration when degradation rate reaches 50%, read-out: OCI-LY10 cell BTK degradation DC50; for Dmax: OCI-Ly10, OCI-LY10 cells
BTK, sequence (Q06187 whole entry): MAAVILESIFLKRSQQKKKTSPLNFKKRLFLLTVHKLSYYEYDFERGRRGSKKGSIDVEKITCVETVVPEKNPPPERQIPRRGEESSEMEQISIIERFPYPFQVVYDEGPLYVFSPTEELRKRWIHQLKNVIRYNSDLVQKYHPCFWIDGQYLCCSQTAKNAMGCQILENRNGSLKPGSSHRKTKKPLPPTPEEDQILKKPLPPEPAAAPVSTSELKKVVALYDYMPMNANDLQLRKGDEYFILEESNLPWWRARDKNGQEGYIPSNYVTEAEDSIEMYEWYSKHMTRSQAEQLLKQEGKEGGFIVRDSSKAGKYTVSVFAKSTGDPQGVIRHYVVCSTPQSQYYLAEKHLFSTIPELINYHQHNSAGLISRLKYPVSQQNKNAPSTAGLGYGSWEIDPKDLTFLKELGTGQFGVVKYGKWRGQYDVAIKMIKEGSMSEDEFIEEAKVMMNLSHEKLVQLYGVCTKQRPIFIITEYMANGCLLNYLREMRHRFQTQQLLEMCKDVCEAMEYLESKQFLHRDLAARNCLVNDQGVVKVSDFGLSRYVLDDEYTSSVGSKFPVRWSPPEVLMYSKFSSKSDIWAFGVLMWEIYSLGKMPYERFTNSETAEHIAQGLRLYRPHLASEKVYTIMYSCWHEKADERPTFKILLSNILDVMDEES
Outline: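 OCI-LY10 cells seeded overnight, then treated with compound at 100 nM-0.098 nM in duplicate for 24 (or 6) h. Lysates probed by Total-BTK HTRF (d2/Eu cryptate antibodies, overnight, room temperature), read at 665/620 nm; DC50 and Dmax from four-parameter dose-response fits.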

BTK(C481S) kinase = BTK(C481S) kinase (Homo sapiens (Human), UniProt Q06187, C481S); assay: Inhibitory activity on BTK(C481S) kinase; type: biochemical; conditions: ATP 10 μM
BTK(C481S) kinase, sequence (Q06187 whole entry C481S): as the sequence (Q06187 whole entry) above, with C481S counted along it
Protocol: as §1, with “20. BTK(C481S)” for “20. EGFR”, “kinase (Carna Biosciences, 08-547),” for “kinase (Carna, 08-115),”, “of BTK(C481S)” for “of EGFR”, “concentration: 0.005” for “concentration: 0.006”, “concentration: 10” for “concentration: 5”

[1] = ICR, mouse, plasma, iv, 1 mg/kg, Mouse i.v. 1 mpk
[2] = ICR, mouse, plasma, iv, 1 mg/kg, Mouse i.v. 1 mpk, read-out: AUC
[3] = ICR, mouse, plasma, po, 10 mg/kg, Mouse i.g. 10 mpk
[4] = ICR, mouse, plasma, po, 10 mg/kg, Mouse i.g. 10 mpk, read-out: AUC
[5] = ICR, mouse, plasma, po, 10 mg/kg, Mouse i.g. 10 mpk, read-out: Cmax
[6] = Homo sapiens, OCI-Ly10, 72 h incubation

SMILES	clearance (Mouse pharmacokinetics; [1])	half-life (Mouse pharmacokinetics; [1])	AUC (Mouse pharmacokinetics; [2])	half-life (Mouse pharmacokinetics; [3])	AUC (Mouse pharmacokinetics; [4])	Cmax (Mouse pharmacokinetics; [5])	F (Mouse pharmacokinetics; Mouse i.g. 10 mpk)	IC50 (OCI-LY10 cells; [6])	IC50 (EGFR kinase)	DC50 (BTK; OCI-LY10 cells)	Dmax (BTK; maximum degradation rate)	IC50 (BTK(C481S) kinase)	AUC (Mouse pharmacokinetics; Mouse i.g. 10 mpk)	Cmax (Mouse pharmacokinetics; Mouse i.g. 10 mpk)	t1/2 (Mouse pharmacokinetics; Mouse i.g. 10 mpk)	AUC (Mouse pharmacokinetics; Mouse i.v. 1 mpk)	Cl (Mouse pharmacokinetics; Mouse i.v. 1 mpk)	t1/2 (Mouse pharmacokinetics; Mouse i.v. 1 mpk)	IC50 (OCI-LY10 cells; 72 h incubation)	BTK degradation in OCI-LY10 cells Dmax (BTK; OCI-LY10 cells, maximum degradation rate)
CN1CCN([C@@H]2CCCN(c3cnc(C(N)=O)c(Nc4ccc(C5CCN(C6CN(c7ccc8c(C9CCC(=O)NC9=O)noc8c7)C6)CC5)cc4)n3)C2)C1=O (some centres unmarked) [Compound 10]	2.65 mL/min/kg	1.6 h	6140 ng·h/mL	2.9 h	35600 ng·h/mL	3850 ng/mL	57.98%	< 0.31 nM	3320 nM	< 0.098 nM	99%	19.6 nM	–	–	–	–	–	–	–	–
CN1CCN([C@@H]2CCCN(c3cnc(C(N)=O)c(Nc4ccc(N5CCC(CN6CCc7ccc8c(C9CCC(=O)NC9=O)noc8c7CC6)CC5)cc4)n3)C2)C1=O (some centres unmarked) [Compound 27]	9.33 mL/min/kg	1.4 h	1760 ng·h/mL	2.4 h	7690 ng·h/mL	766 ng/mL	44.0%	< 0.31 nM	109 nM	< 0.098 nM	97%	9 nM	–	–	–	–	–	–	–	–
CN1CCN([C@@H]2CCCN(c3cnc(C(N)=O)c(Nc4ccc(C5CCC(N6Cc7ccc8c(C9CCC(=O)NC9=O)noc8c7C6)CC5)cc4)n3)C2)C1=O (some centres unmarked) [Compound 33]	–	–	–	–	–	–	26.0%	–	785 nM	–	–	22 nM	20971 ng·h/mL	1555 ng/mL	3.2 h	7987 ng·h/mL	2.17 mL/min/kg	2.6 h	< 0.31 nM	>90%
